From patent US12201598B2, “Immunoregulatory microparticles for modulating inflammatory arthritides” (The Regents of the University of California, priority 2021, dated 2025)

Columns and labels:
Naïve SKG CD4+ T cells = assay: ex vivo Th17 differentiation assay in Th17 inflammatory conditions; format: cell-based, mouse; details: for FoxP3 expression in CD4+ T cells: Th17 polarizing cytokines, four days
Procedure: To test the effect of ATRA on enhancing Treg cells, an ex vivo differentiation and stabilization assay in Th17 inflammatory conditions using cytokine supplementation was performed (FIG. 1A). Naïve SKG CD4+ T cells were isolated to consistently obtain greater than 90% CD4+CD44−CD62L+ post-enrichment (data not shown). Subsequently, these cells were stimulated with anti-mouse CD3 (αCD3) and CD28 (αCD28) antibodies along with Th17 polarizing cytokines IL-6, TGF-β1, IL-1β, and IL-23, and immunophenotypes were analyzed after four days. In a subset of conditions, ATRA was added to the T cell culture medium, ranging from 10 pM to 10 nM. […] In addition to reduced expression of IL-17A, the fraction of RORγt+CD4+ T cells was reduced in 1 nM ATRA conditions (53.3±7.9%) relative to cells exposed 0 nM ATRA (73.3±3.9%) (FIG. 1D).
(§1) The bioactivity of released ATRA was assessed following the experimental schematic outlined in FIG. 1A with supernatant collected at day 1, 14 and 28 and replicates diluted to the expected joint concentration based on delivery of 2 μg ATRA-encapsulated PLGA MPs injected in ˜20 μL of synovial fluid.

SKG FoxP3eGFP Treg cells = assay: Treg cell stability (destabilization) assay; format: cell-based, mouse; details: 1 nM ATRA, IL6, 72 hours
Procedure: The loss of FoxP3 expression correlated with Treg cell transitioning to a Th17-like exTreg cell phenotype, with 23.0±1.7% and 13.3±1.5% of cells without ATRA expressing RORγt and IL-17, respectively, compared to 11.6±1.8% and 5.7±1.1% of cells cultured with 1 nM ATRA (FIGS. 1G and H).
as §1

[1] = test system: healthy C57BL/6J (B6) mice; assay: OVA immunization in healthy C57BL/6J mice; format: in vivo, mouse; details: spleen; daily i.p. administration
Source text: To quantify the effect of IA ATRA-encapsulated PLGA MPs on arthritis-irrelevant T cell suppression we leveraged OVA-specific tetramers available for quantifying T cells in H2b-background mice and conducted the aforementioned immunization study in healthy C57BL/6J (B6) mice (FIG. 8D). Systemically administered ATRA was delivered as a daily intraperitoneal (i.p.) injection to assess the effect of systemic exposure.

CD4+ T cells = assay: 24-hour pretreatment then transfer to Th17 inducing conditions; format: cell-based; details: 24-hour pretreatment 1 nM ATRA, washed
Procedure: FIG. 10A depicts the quantification of FOXP3 expression in CD4+ T cells after 24-hour pretreatment with either nothing (None), 1 nM ATRA (ATRA), or IL-2, followed by removal and washing of the cells, and transfer to Th17 inducing conditions. FIG. 10B depicts quantification of IL-17 expression in CD4+ T cells after a 24-hour pretreatment with either nothing (None), 1 nM ATRA (ATRA), or IL-2, followed by removal and washing of the cells, and transfer to Th17 inducing conditions. Pre-treatment of the CD4+ T cells with ATRA increases FOXP3 expression and reduces IL-17 expression after exposure to Th17 inducing conditions.

[2] = test system: chromatin of cells cultured in Th17 inducing conditions; assay: Assay for Transposase Accessible Chromatin (ATAC) sequencing; format: cell-based
Procedure: Assay for Transposase Accessible Chromatin (ATAC) sequencing assay uses a hyperactive protein to bind and snip DNA in open chromatin regions to probe for the parts of DNA are accessible for transcription. The ATAC assay was performed to determine whether ATRA causes epigenetic modifications to cellular DNA to influence the accessibly of DNA for transcription and, in turn, modulating what a cell's “default” state/programs are. Quantification of differentially accessible regions (DARs) is shown by counts per peak between cells cultured in Th17 inducing conditions with (ATRA Treated) or without (Th17 Control) 1 nM ATRA. (FIG. 11A).
FIG. 11C is a heatmap of all DARs grouped in rows by those enriched in the ATRA treated group or those enriched in the Tb17 Control group. Heatmapping was performed by determining the z-score of the DAR in a given sample as compared to the row. A Genome browser plot for Th17 and Treg associated genes is shown (FIG. 11D). The size of the peaks corresponds to the number of reads, so the bigger the peaks are the more accessible that region of DNA is.

rodents = details: cited from earlier work
[3] = test system: SKG mice with mannan-induced arthritis; assay: IA treatment of established SKG arthritis (clinical score, ankle thickness); format: in vivo, mouse
Procedure: To assess the feasibility of modulating established SKG arthritis. ATRA-encapsulated PLGA MPs were injected into the tibial/tarsal ankle joint of ten SKG mice with middle stage arthritis, prior to the development of severe symptoms. PLGA-Blank MPs were injected into the tibial/tarsal ankle joint of eleven SKG mice with middle stage arthritis. Arthritis onset was synchronized using inter-peritoneal (IP) mannan injection. ATRA-encapsulated PLGA MPs treatment was administered after 14 days, corresponding to established SKG arthritis (FIG. 3A). To track MP degradation in vivo, cyanine-5 (Cy5) conjugated PLGA was incorporated to generate fluorescently labeled Cy5 PLGA MPs and PLGA MPs without ATRA (PLGA-Blank MPs). The PLGA-Blank MPs were imaged using a live animal. In Vivo Imaging System (IVIS). […] Based on fluorescence attenuation, MPs remained localized in the joint after injection and steadily degraded over the course of the study (FIG. 3B). Arthritis progression was quantified using bi-weekly clinical scoring between the treatment groups. […] The improvement in clinical score and ankle thickness measurements were quantified in both the ipsilateral and contralateral joints in the above described studies (FIG. 3H-J, FIGS. 6B and C).

arthritic SKG mice = assay: subcutaneous administration to arthritic SKG mice; format: in vivo, mouse; details: subcutaneously between the scapula
Procedure: The efficacy of subcutaneously administered ATRA-encapsulated PLGA MPS in treating SKG mice was assessed to determine whether ATRA-encapsulated PLGA MPS act via systemic release, in which case subcutaneous ATRA-encapsulated PLGA MPS treatment would improve disease scores, or if ATRA-encapsulated PLGA MPS treatment acts locally, in which case its delivery to the intra-articular space would improve disease scores. ATRA-encapsulated PLGA MPS, dose-matched Bolus ATRA in corn oil, and vehicle (corn oil) were administered to arthritic SKG subcutaneously between the scapula of SKG mice (FIGS. 9A-B).

Structure (SMILES): CC1=C(/C=C/C(C)=C/C=C/C(C)=C/C(=O)O)C(C)(C)CCC1 [ATRA, all-trans retinoic acid]
- fraction of IL-17A+CD4+ T cells (Naïve SKG CD4+ T cells; 10 pM ATRA): 9.5±1.7%
- fraction of IL-17A+CD4+ T cells (Naïve SKG CD4+ T cells; 100 pM ATRA): 7.2±1.5%
- fraction of IL-17A+CD4+ T cells (Naïve SKG CD4+ T cells; 1 nM ATRA): 5.4±1.9%
- fraction of RORγt+CD4+ T cells (Naïve SKG CD4+ T cells; 1 nM ATRA): 53.3±7.9%
- fraction of IL-17A+CD4+ T cells (Naïve SKG CD4+ T cells; 10 nM ATRA): 5.4±2.3%
- FoxP3 expression in CD4+ T cells (Naïve SKG CD4+ T cells; ATRA above 100 pM): 40.0±3.4%
- FoxP3 expression in CD4+ T cells (Naïve SKG CD4+ T cells; ATRA below 100 pM): 11.2±2.3%
- cells expressing IL-17 (SKG FoxP3eGFP Treg cells): 5.7±1.1%
- cells expressing RORγt (SKG FoxP3eGFP Treg cells): 11.6±1.8%
- cells retaining FoxP3eGFP expression (SKG FoxP3eGFP Treg cells): 71.6±5.5%
- OVA-specific CD4+ T cells (tetramer staining) [1]: significantly lower
- FOXP3 expression (CD4+ T cells): increases
- IL-17 expression (CD4+ T cells): reduces
- regions in the DNA more open in the ATRA treated cells ([2]; 1 nM ATRA versus Th17 control): 7957
- accessibility of FoxP3 locus ([2]; 1 nM ATRA, genome browser plot): promotes accessibility
- regions in the DNA more open in the Th17 control ([2]; Th17 control versus 1 nM ATRA): 10316
- doses associated with toxicity (rodents): > 14 mg/kg

Structure (SMILES): CC1=C(/C=C/C(C)=C/C=C/C(C)=C/C(=O)O)C(C)(C)CCC1 [bolus ATRA, all-trans retinoic acid]
- severity of arthritis / clinical benefit ([3]; 2 μg IA MPs versus dose-matched IA bolus): no clinical benefit
- clinical scores in ipsilateral and contralateral ankles ([3]; dose-matched IA bolus in corn oil): increased comparably
- ankle swelling (arthritic SKG mice): Neither bolus ATRA nor ATRA-encapsulated PLGA MPs provided improvement
- clinical score (arthritic SKG mice): Neither bolus ATRA nor ATRA-encapsulated PLGA MPs provided improvement
